Assay results from patent US8975241B2, “Composition for treating and preventing obesity including high water-soluble 2-hydroxypropyl-betacyclodextrin as effective component” (Song Ho Biomed Co., Ltd., priority 2009, dated 2015).

How the values were obtained:
[1] = tested on: mouse model with obesity caused by a high fat diet; experiment: Change in body weight by autonomically drinking in mouse model with obesity caused by high fat diet; assay type: in vivo; details: 15% (w/v) in drinking water
Experimental: (§1) Male C57BL/6J mice (Five age of the week, KRIBB, Korea) were accommodated for 1 week, and then were induced with obesity by giving a high fat diet (60% fat kcal, Research Diets) for 15 days. The weights of the animals that were induced with obesity were equally divided into 3 animals as one group. And then, the solvent-control group drank sterilized distilled water, autonomically. Hydroxypropyl-β-cyclodextrin (HPBCD) was dissolved in sterilized distilled water to be 10, 15, and 20% (W/V) concentrations for drinking autonomically. A change in body weight was daily measured to all of animals during the test; the fixed amount of feeds was provided at the day of measuring body weight, and then an amount of intake per a group (g/day) was calculated by measuring a residual amount of feeds at the next day. A change in body weight was measured during the test using α-cyclodextrin (α-CD) instead of 2-hydroxypropyl-β-cyclodextrin (HPBCD) in the same method as the above <Example 1>.

[2] = tested on: mouse model with obesity caused by a high fat diet; experiment: as above; assay type: in vivo
[3] = tested on: normal mouse (ICR); experiment: Oral glucose tolerance test; assay type: in vivo; details: for Rate of Suppression (%): vs control group
From the text: An oral glucose tolerance test system is to comprehensively predict whether or not a sample has an effect on suppressing a sharp increase of blood sugar induced by intaking glucose after an oral-administration of the sample to a mouse, activities of suppressing glycolysis/glucose absorption, etc.
A normal mouse [ICR, 6W, Coretech Inc., Korea] was accommodated for 1 week, and then approximately 18˜20 g female with 7 age of the week mouse was used. 6 mice were assigned for one experimental group and starved for 16 hours to use. Hydroxypropyl-β-cyclodextrin (HPBCD) was dissolved in sterilized distilled water to be 20% (W/V) concentration, and then oral-administered in 0.2 mL per 20 g body weight of a mouse. And then, the glucose dissolved in physiological saline was oral-administered to mice in a liquid amount of 10 ml/kg to inject 2 g/kg after 15, 30, 60, and 90 minutes, respectively. The levels of blood sugars were measured just before administering glucose (0 hour), and at 15, 60, and 120 minutes after administering glucose. Blood for measuring blood sugar was collected from orbital venous of the mouse using a capillary tube. The blood sugar in the collected blood was measured using a measuring instrument, […] ALPHA (Boehringer mannheim Co.). The same amount of sterilized distilled water was administered for the control group.

[4] = tested on: high fat diet-mouse; experiment: Change of liver weight and body fat by oral administration in high fat diet-mouse; assay type: in vivo; details: oral for 5 days
Experimental: […] The mice were killed by using CO2 gas; their abdomens were cut; their subcutaneous fats, genital fats, intra-abdominal fats, and livers were isolated; then their weights were measured using a chemical balance; average weight of five animals was calculated.

[5] = tested on: mouse model with obesity caused by a high fat diet; experiment: Amount of feed intake by autonomically drinking in mouse model with obesity caused by high fat diet; assay type: in vivo; details: for Amount of Feed Intake: per group
Experimental: as §1, with “day.” for “day. A change in body weight was measured during the test using α-cyclodextrin (α-CD) instead of 2-hydroxypropyl-β-cyclodextrin (HPBCD) in the same method as the above <Example 1>.”

[6] = tested on: mouse model with obesity caused by a high fat diet; experiment: Weights of body fat and liver after autonomically drinking in mouse model with obesity caused by high fat diet; assay type: in vivo
Experimental: The animals induced with obesity in the above <Example 1> drank autonomically HPBCD with 10, 15, and 20% (W/V) concentrations for 3 days and then their autopsies were conducted. The mice were killed by using CO2 gas; their abdomens were cut; their genital fats, intra-abdominal fats, and livers were isolated; then their weights were measured using a chemical balance; average weight of three animals was calculated.

[7] = Solubility in water; details: at 25° C.
[8] = 10% (w/v) in drinking water, 1 Day
[9] = 10% (w/v) in drinking water, 2 Day
[10] = 10% (w/v) in drinking water, 3 Day
[11] = 10, 15, 20% (W/V) autonomically drinking
[12] = 15% (w/v) in drinking water, 2 Day
[13] = 20% (w/v) in drinking water, 1 Day
[14] = 20% (w/v) in drinking water, 2 Day
[15] = 20% (w/v) in drinking water, 3 Day
[16] = 20% (W/V) oral (−)15 min. before glucose 2 g/kg
[17] = 20% (W/V) oral (−)30 min. before glucose 2 g/kg
[18] = 20% (W/V) oral (−)60 min. before glucose 2 g/kg
[19] = 20% (W/V) oral (−)90 min. before glucose 2 g/kg
[20] = 10% (w/v) in drinking water for 3 days
[21] = 15% (w/v) in drinking water for 3 days
[22] = 20% (w/v) in drinking water for 3 days

Solubility [7]: > 600 mg/mL
Substance: 2-hydroxypropyl-β-cyclodextrin [HPBCD]
Change in body weight (%) ([1]; 1 Day): 96.1 ± 1.1 %
Change in body weight (%) ([1]; 3 Day): 90.9 ± 2.3 %
Change in body weight (%) ([2]; 10% (w/v) in drinking water, 0 Day): 100.0 ± 0.0%
Change in body weight (%) [2, 8]: 98.1 ± 0.2%
Change in body weight (%) [2, 9]: 97.6 ± 0.8 %
Change in body weight (%) [2, 10]: 94.6 ± 0.7 %
body weight as compared with the distilled water-drinking control group [2, 11]: decreased depending on the concentration
body weight as compared with the initial body weight [2, 11]: significantly decreased
Change in body weight (%) ([2]; 15% (w/v) in drinking water, 0 Day): 100.0 ± 0.0%
Change in body weight (%) [2, 12]: 94.0 ± 1.3 %
Change in body weight (%) ([2]; 20% (w/v) in drinking water, 0 Day): 100.0 ± 0.0%
Change in body weight (%) [2, 13]: 100.0 ± 0.0%
Change in body weight (%) [2, 14]: 89.1 ± 6.9 %
Change in body weight (%) [2, 15]: 85.4 ± 8.1 %
Increasing Amount of Blood Sugar (15 min.~0 hour) [3, 16]: 190.0 mg/dL
Level of Blood Sugar Before and After Administration of D-glucose (mg/dl), 0 Hour [3, 16]: 74.8 mg/dL
Level of Blood Sugar Before and After Administration of D-glucose (mg/dl), 15 min. [3, 16]: 264.8 mg/dL
Rate of Suppression (%) [3, 16]: 19.7%
Increasing Amount of Blood Sugar (15 min.~0 hour) [3, 17]: 191.0 mg/dL
Level of Blood Sugar Before and After Administration of D-glucose (mg/dl), 0 Hour [3, 17]: 83.3 mg/dL
Level of Blood Sugar Before and After Administration of D-glucose (mg/dl), 15 min. [3, 17]: 274.3 mg/dL
Rate of Suppression (%) [3, 17]: 19.3%
Increasing Amount of Blood Sugar (15 min.~0 hour) [3, 18]: 184.5 mg/dL
Level of Blood Sugar Before and After Administration of D-glucose (mg/dl), 0 Hour [3, 18]: 83.3 mg/dL
Level of Blood Sugar Before and After Administration of D-glucose (mg/dl), 15 min. [3, 18]: 267.8 mg/dL
Rate of Suppression (%) [3, 18]: 22.0%
Increasing Amount of Blood Sugar (15 min.~0 hour) [3, 19]: 180.7 mg/dL
Level of Blood Sugar Before and After Administration of D-glucose (mg/dl), 0 Hour [3, 19]: 78.3 mg/dL
Level of Blood Sugar Before and After Administration of D-glucose (mg/dl), 15 min. [3, 19]: 259.0 mg/dL
Rate of Suppression (%) [3, 19]: 23.7%
blood sugar caused by intaking glucose suppressed as compared with the control group ([3]; oral, all pre-treatment times): 19˜24%
Total Amount of Fat ([4]; 10% (w/v)): 1233.9 ± 244.8 mg
Weight of Genital Fat ([4]; 10% (w/v)): 473.3 ± 99.6 mg
Weight of Intra-abdominal Fat ([4]; 10% (w/v)): 113.0 ± 31.5 mg
Weight of Liver ([4]; 10% (w/v)): 1011.1 ± 33.5 mg
Weight of Subcutaneous Fat ([4]; 10% (w/v)): 647.6 ± 119.5 mg
Total Amount of Fat ([4]; 15% (w/v)): 795.8 ± 90.1 mg
Weight of Genital Fat ([4]; 15% (w/v)): 319.6 ± 46.5 mg
Weight of Liver ([4]; 15% (w/v)): 960.2 ± 44.6 mg
Weight of Subcutaneous Fat ([4]; 15% (w/v)): 411.3 ± 43.9 mg
Total Amount of Fat ([4]; 20% (w/v)): 666.9 ± 75.3 mg
Weight of Genital Fat ([4]; 20% (w/v)): 240.8 ± 45.5 mg
Weight of Intra-abdominal Fat ([4]; 20% (w/v)): 43.9 ± 9.3 mg
Weight of Liver ([4]; 20% (w/v)): 990.1 ± 35.1 mg
Weight of Subcutaneous Fat ([4]; 20% (w/v)): 382.1 ± 38.3 mg
weight of liver vs control group [4]: decreased depending on the concentrations
Amount of Feed Intake [5, 8]: 3.9 g/day
Amount of Feed Intake [5, 9]: 3.9 g/day
Amount of Feed Intake [5, 10]: 2.7 g/day
appetite / dietary intake [5, 11]: effect on suppressing appetite
Amount of Feed Intake ([5]; 15% (w/v) in drinking water, 1 Day): 4.1 g/day
Amount of Feed Intake [5, 12]: 4.5 g/day
Amount of Feed Intake ([5]; 15% (w/v) in drinking water, 3 Day): 4.0 g/day
Amount of Feed Intake [5, 13]: 4.2 g/day
Amount of Feed Intake [5, 14]: 4.2 g/day
Amount of Feed Intake [5, 15]: 2.6 g/day
Total Amount of Fat [6, 20]: 1615.0 ± 212.3 mg
Weight of Genital Fat [6, 20]: 594.0 ± 95.0 mg
Weight of Intra-abdominal Fat [6, 20]: 158.8 ± 36.3 mg
Weight of Liver [6, 20]: 999.3 ± 150.2 mg
Weight of Subcutaneous Fat [6, 20]: 862.2 ± 86.7 mg
weight of liver vs control group [6, 11]: decreased depending on the concentrations
Total Amount of Fat [6, 21]: 1437.0 ± 282.0 mg
Weight of Genital Fat [6, 21]: 524.8 ± 67.1 mg
Weight of Intra-abdominal Fat [6, 21]: 147.2 ± 29.2 mg
Weight of Liver [6, 21]: 820.5 ± 66.0 mg
Weight of Subcutaneous Fat [6, 21]: 765.1 ± 238.8 mg
Total Amount of Fat [6, 22]: 1035.6 ± 324.3 mg
Weight of Genital Fat [6, 22]: 448.4 ± 108.6 mg
Weight of Intra-abdominal Fat [6, 22]: 97.8 ± 44.9 mg
Weight of Liver [6, 22]: 808.7 ± 76.8 mg
Weight of Subcutaneous Fat [6, 22]: 489.4 ± 183.5 mg
